The test deals with T1, LXRα (Homo sapiens, UniProt Q13133).
T1 construct: human LXRalpha (amino acid 205-447); made in house; host or cells: E. coli
T1 sequence (Q13133 205-447): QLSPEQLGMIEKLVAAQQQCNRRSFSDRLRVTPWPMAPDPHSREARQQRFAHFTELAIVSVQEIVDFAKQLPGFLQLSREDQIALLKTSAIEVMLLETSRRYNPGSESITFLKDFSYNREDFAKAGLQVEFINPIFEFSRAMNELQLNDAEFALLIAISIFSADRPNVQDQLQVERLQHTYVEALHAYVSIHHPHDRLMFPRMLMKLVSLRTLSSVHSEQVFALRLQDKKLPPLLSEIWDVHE
The experiment in a line: Co-activator recruitment assay (LXR-LBD / SRC-1 peptide, time-resolved fluorescence). It is filed as biochemical. Conditions: coactivator recruitment assays. From the text: The Ligand Binding Domain (LBD) of human LXRalpha (amino acid 205-447) and LXRbeta (amino acid 216-461) was produced by recombinant techniques in E. coli. A fragment of the human Steroid Receptor Co-Activator-1 (SRC-1) was produced as a synthetic peptide. An anti-6×His-antibody coupled with Europium (Eu^3+) was used to recognize the His-tag on the LXR-LBD and Allophycocyanin (APC) coupled to streptavidin was used to recognize the biotinylated SRC-1. Agonist binding to LXRalpha or LXRbeta enhances the affinity of LXR towards SRC-1 and thereby brings Eu^3+ and APC in close proximity. Eu^3+ is excited at 337 nm and emitts light at 620 nm. This emission, when in close proximity, excites APC to emit light at 665 nm.
Compounds (10 mM) in DMSO were diluted (⅓) in DMSO in 10 concentrations. […]
The assay mix has the following final concentrations; LXRalpha mix: 0.06 μg/mL Eu-labelled anti-6×His Ab, […] Streptavidin APC, 30 nM SRC-1 peptide and 0.9 μg/mL LXRalpha in buffer and LXRbeta mix; 0.06 μg/mL Eu-labelled anti-6×His Ab, 1.15 μg/1 mL Streptavidin APC, 90 nM SRC-1 peptide and 0.2 μg/mL LXRbeta in buffer. Time-resolved fluorescence readings were done in a Wallac Victor reader at 665 nm followed by reading at 615 nm. […]

Each structure is given as a SMILES string.

As a reminder, the EC50 is the concentration needed to bring the measured effect to its halfway point. For `O=C1C(Nc2ccc(OC(F)F)cc2)=C(c2ccccc2)S(=O)(=O)N1Cc1ccc(OC(F)F)cc1` [Example 14, 2-[4-(Difluoromethoxy)benzyl]-4-{[4-(difluoromethoxy)phenyl]amino}-5-phenylisothiazol-3(2H)-one 1,1-dioxide], the EC50 was found to be 75 nM.
For `COCCN1C(=O)C(Nc2ccc3oc(C(C)=O)cc3c2)=C(c2ccccc2)S1(=O)=O` [Example 13, 4-[(2-Acetyl-1-benzofuran-5-yl)amino]-2-(2-methoxyethyl)-5-phenylisothiazol-3(2H)-one 1,1-dioxide] the value was 270 nM.

(Values after patent US7582629B2, “Derivatives of isothiazol-3(2H)-one 1,1-dioxides as liver X receptor modulators” (AstraZeneca AB, priority 2005, dated 2009).)
